{"source": "paper PMC7769561", "about": "“Antileishmanial activity of synthetic analogs of the naturally occurring quinolone alkaloid N-methyl-8-methoxyflindersin” (PLoS ONE, 2020)", "key": {"hMDMs": {"system": "hMDMs", "experiment": "Cytotoxicity in hMDMs (resazurin, 72 h)", "details": "class by CC50", "description": "We isolated hMDMs from buffy coats donated by the Institute of Local Science (Biotechnology and Health Innovation, Bogotá, Colombia) and spun them in Lymphoprep density gradient medium (Stem-Cell, Vancouver, Canada).\nNext, we added 100 μL of this culture to each quinoline alkaloid–like compound at a concentration of 200, 20, 2, 0.2, and 0.02 μg/mL. […] Cells treated with amphotericin B (Sigma-Aldrich) were used as cell apoptosis (positive) controls. Results were expressed as the medial cytotoxic concentration (CC50) using Prism GraphPad software for nonlinear regression analysis (https://www.graphpad.com/scientific-software/prism/).\nAll assays required at least three independently duplicated experiments. We determined cytotoxicity against hMDMs and effectivity in L. (V) panamensis promastigotes according to each treatment’s mortality (compound and concentration) using Eq 1, where the control mean fluorescence intensity (MFI) was 100% viability: Validityinhibition(%)=100−[MIFexposedcells/MIFunexposedcells×100] (1)\n(§1) We used GraphPad Prism nonlinear regression analysis to estimate the percentage mortality with regard to CC50 and EC50. […] The antileishmanial activity with regard to promastigotes was classified as active according to Eq 2: Active=EC50<[LC50/2], (2) where LC50 is the median lethal concentration. We also used GraphPad Prism nonlinear regression analysis to determine the intracellular antileishmanial activity (concentration vs. response), depending on the infection (number of infected cells) and parasite burden (number of parasites/cell) obtained in experimental conditions. Parasite inhibition was estimated using Eq 3, where the plate MFI is 100% parasites: Infectioninhibition(%)=100−[(MIFexposedparasites/MIFunexposedparasites×100)] (3)"}, "[1]": {"system": "L. (V.) panamensis intracellular amastigotes", "experiment": "Antileishmanial activity in L. (V.) panamensis intracellular amastigotes in hMDMs", "format": "cell-based, Leishmania (Viannia) panamensis", "description": "Next, 100 μL of the suspension was cultured in 96-well plates and infected with L. (V.) panamensis promastigotes (HMOM/COL/87/UA-140) at a 10:1 parasite:cell ratio. We incubated the plates in a 5% CO2 atmosphere for 4 h at 35°C. After incubation, we removed noninternalized parasites by washing the cells with 0.9% NaCl saline solution (Baxter International, Deerfield, IL, USA). The cells were incubated again for 24 h and then treated with each quinoline alkaloid–like compound at a concentration of 100, 10, 1, 0.1, and 0.01 μg/mL in a 5% CO2 atmosphere for 72 h at 36°C. Next, we quantified the percentage of infected cells using fluorescence microscopy, as previously described by Pérez-Cordero in 2011 [23], and quantified the parasite load (amount of intracellular promastigotes and amastigotes per cell) using Giemsa staining and flow cytometry (Cytomics FC 500 MPL; Beckman Coulter, Brea, CA, USA). […] Results were expressed as EC50 using Prism GraphPad software’s probit nonlinear regression analysis (https://www.graphpad.com/scientific-software/prism/).\nas §1\nThe percentage inhibition was used to calculate EC50 by nonlinear regression analysis (fluorescence microscopy), while the parasite burden was evaluated as the percentage of intracellular promastigotes and amastigotes in 100 infected cells (Giemsa staining). […] The selectivity index (SI) was estimated using the following formula: SI=CC50/EC50"}, "[2]": {"system": "L. (V.) panamensis (MHOM/COL/87/UA140-EGFP)", "experiment": "Therapeutic in vivo response in hamsters with experimental cutaneous leishmaniasis", "design": "species or system golden hamster (Mesocrisetus auratus)", "description": "We used a golden hamster (Mesocrisetus auratus) model to evaluate the therapeutic response of synthetic alkaloid compounds 2 and 8. Male and female 6-week-old hamsters with a mean live weight (LW) of 120 g were infected by a dorsal intradermic injection of L. (V.) panamensis (MHOM/COL/87/UA140-EGFP) promastigotes. After the infected hamsters developed ulcers, they were randomly divided into three groups (n = 6 each) and treated topically with 1% ointment formulated from compounds 2 and 8.\nThe hamsters were monitored every 4 weeks to assess their appearance and weight and the lesion size. We categorized each compound’s effectiveness pre- and posttreatment as follows: (i) cure (complete disappearance of lesions), (ii) improvement (>10% reduced lesion area), and (iii) therapeutic failure or nonresponse (increased lesion size). The health status was monitored weekly for 3 months (12 weeks) posttreatment. After 3 months, the hamsters were euthanized in a CO2 chamber. We performed histopathological analysis after necropsy of the affected tissues and organs. In addition, we evaluated treatment cytotoxicity using LW monitoring and biochemical parameters (alanine aminotransferase [ALT], creatinine, and blood urea nitrogen [BUN]) pretreatment and 45 days after ointment administration.\nThe in vivo efficacy of compounds 1, 2, and 8 was expressed as a percentage cure, improvement, or nonresponse compared to the beginning of treatment. Efficacy was evaluated in vivo to compare percentages, the frequency of change, and treatment cytotoxicity in the hamster model. We used GraphPad Prism to determine ROS and NO production and the apoptotic cell percentage. One- or two-way analysis of variance (ANOVA; response–time kinetics) was used to compare treatments after confirming normal data distribution. P < 0.05 was considered statistically significant by comparing untreated cells (experiments on untreated hMDMs) with infected cells (experiments on untreated and treated hMDMs)."}, "[3]": {"system": "L. (V.) panamensis-infected hMDMs", "experiment": "Transmission electron microscopy of L. (V.) panamensis-infected hMDMs", "format": "cell-based, human", "details": "compound at EC50, 72 h, TEM", "description": "(§2) This procedure involved including fresh resin and 100–200-nm-wide ultrafine cuts observed by TEM (100X–10.000X) (HITACHI-HU-12; Hitachi, Tokyo, Japan)."}, "[4]": {"system": "L. (V.) panamensis intracellular amastigotes", "experiment": "Transmission electron microscopy of L. (V.) panamensis intracellular amastigotes in hMDMs", "format": "cell-based, Leishmania (Viannia) panamensis", "design": "Nucleus (ultrastructural alteration grade) / Vacuoles (ultrastructural alteration grade): key: -: no alteration/absence; +: low alteration/low presence; ++: alteration/moderate presence; +++: serious disturbance/abundant presence", "details": "compound at EC50, 72 h, TEM", "description": "as §2"}, "[5]": {"details": "amastigotes in hMDMs, 72 h, ± SD"}, "[6]": {"details": "hamsters, topical 1% ointment, 3 months posttreatment, n = 6"}}, "note": "“And” between values parts separate entries of the source, which are not always exact repeats. Identical values can stand only once. Throughout, for Cell membrane (ultrastructural modification grade): key: -: no alteration/absence; +: low alteration/low presence; ++: alteration/moderate presence; +++: serious disturbance/abundant presence. Throughout, for LB (lipid bodies, grade): key: -: no alteration/absence; +: low alteration/low presence; ++: alteration/moderate presence; +++: serious disturbance/abundant presence. Throughout, for Mitochondria (ultrastructural modification grade): key: -: no alteration/absence; +: low alteration/low presence; ++: alteration/moderate presence; +++: serious disturbance/abundant presence. Throughout, for Nucleus (ultrastructural modification grade): key: -: no alteration/absence; +: low alteration/low presence; ++: alteration/moderate presence; +++: serious disturbance/abundant presence."}
{"substance": "1,2,3,4-tetrahydro(benzo)-3-quinolin-ol [Compound 2]", "values": [{"measurement": "Cytotoxicity class toward hMDMs", "setting": "hMDMs", "value": "high (high if CC50 < 100 μg/mL)"}, {"measurement": "SI (selectivity index = CC50/EC50)", "setting": "[1]; CC50 hMDMs / EC50 intracellular amastigotes", "value": "3.64 and > 3"}, {"measurement": "EC50", "setting": "[1]; [5]", "value": 26, "unit": "µM"}, {"measurement": "EC50 Intracellular amastigotes", "setting": "[1]; [5]", "value": "5.2 ± 0.9", "unit": "µg/mL"}, {"measurement": "Antileishmanial activity class", "setting": "[1]; intracellular amastigotes, class by EC50", "value": "high (high if EC50 < 25 μg/mL)"}, {"measurement": "Histopathologic analysis of the skin, cured hamsters", "setting": "[2]; hamsters cured by treatment, hematoxylin/eosin", "value": "moderate orthokeratotic hyperkeratosis and low mononuclear leukocyte infiltration"}, {"measurement": "Histopathologic analysis of the skin, hamsters showing improvement", "setting": "[2]; hamsters showing improvement, hematoxylin/eosin", "value": "severe leukocyte infiltratation and abundant L. (V.) panamensis being phagocytosed by hMDMs"}, {"measurement": "Lesion size during treatment", "setting": "[2]; hamsters, topical 1% ointment", "value": "significantly reduced lesions"}, {"measurement": "Improvement (reduced lesion size), percentage of the experimental group", "setting": "[2]; [6]", "value": 66.6, "unit": "%"}, {"measurement": "Total cure (healing), percentage of the experimental group", "setting": "[2]; [6]", "value": 33.3, "unit": "%"}, {"measurement": "Cell membrane (ultrastructural modification grade)", "setting": "[3]", "value": "-"}, {"measurement": "LB (lipid bodies, grade)", "setting": "[3]", "value": "+++"}, {"measurement": "Mitochondria (ultrastructural modification grade)", "setting": "[3]", "value": "+"}, {"measurement": "Nucleus (ultrastructural modification grade)", "setting": "[3]", "value": "-"}, {"measurement": "PV (description)", "setting": "[3]", "value": "Multiple parasites per vacuole"}, {"measurement": "PV (parasitophorous vacuoles, grade)", "setting": "[3]", "value": "+"}, {"measurement": "Parasites (grade)", "setting": "[3]", "value": "++"}, {"measurement": "Vacuoles (ultrastructural modification grade)", "setting": "[3]", "value": "-"}, {"measurement": "Cell membrane (ultrastructural alteration grade)", "setting": "[4]", "value": "-"}, {"measurement": "Flagellum (flagellar/axonema pocket) (description)", "setting": "[4]", "value": "Multiple organelles"}, {"measurement": "Flagellum (flagellar/axonema pocket) (grade)", "setting": "[4]", "value": "++"}, {"measurement": "LB (lipid bodies, grade)", "setting": "[4]", "value": "+++"}, {"measurement": "Mitochondria/Kinetoplasts (description)", "setting": "[4]", "value": "Multiple organelles"}, {"measurement": "Mitochondria/Kinetoplasts (ultrastructural alteration grade)", "setting": "[4]", "value": "++"}, {"measurement": "Nucleus (description)", "setting": "[4]", "value": "Abnormal distribution of chromatine"}, {"measurement": "Nucleus (ultrastructural alteration grade)", "setting": "[4]", "value": "++"}, {"measurement": "PV (description)", "setting": "[4]", "value": "Multiple"}, {"measurement": "PV (parasitophorous vacuoles, grade)", "setting": "[4]", "value": "+"}, {"measurement": "Vacuoles (description)", "setting": "[4]", "value": "Double membrane (autophagic-digestives)"}, {"measurement": "Vacuoles (ultrastructural alteration grade)", "setting": "[4]", "value": "+++"}]}
